# Residues, ends and D or L forms follow the SMILES beside them.
# What was measured:
# [1] = system: transplant patients; test: Cyclosporine nephrotoxicity and organ health in transplant patients; assay type: in vivo, human; details: subjects receiving cyclosporine
# Text: To prevent organ or tissue rejection after transplant, patients often receive a regimen of the immunosuppressive drug cyclosporine. Cyclosporine levels are established and maintained in the subject at levels to effectively suppress the immune system. However, nephrotoxicity is a concern for these subjects, and the level of the drug in the subject's blood is monitored carefully. Cyclosporine doses are adjusted accordingly in order to not only prevent rejection, but also to deter these potentially damaging side effects. Typically, an adult transplant patient receives cyclosporine as follows: IV: 2 to 4 mg/kg/day IV infusion once daily over 4 to 6 hours, or 1 to 2 mg/kg IV infusion twice a day over 4 to 6 hours, or 2 to 4 mg/kg/day as a continuous IV infusion over 24 hours. Capsules: 8 to 12 mg/kg/day orally in 2 divided doses. Solution: 8 to 12 mg/kg orally once daily. In some patients, doses can be titrated downward with time to maintenance doses as low as 3 to 5 mg/kg/day. […]
# Transplant subjects receiving cyclosporine pursuant to standard pre- and post-transplant procedures will be divided into groups. […] Subjects will be monitored for health and function of the transplanted tissue or organ, as well as the incidence and severity of nephrotoxicity often seen with prolonged cyclosporine administration.
# [2] = system: Isolated mouse pancreatic islet cells; test: Example 30: oxidative damage in pancreatic islet cells; assay type: cell-based; details: 25 μM t-BHP
# Method: Isolated mouse pancreatic islet cells will be treated with 25 μM t-BHP alone or in the presence of peptide conjugates, aromatic-cationic peptides, or SPN10(s) with or without aromatic-cationic peptides. Mitochondrial membrane potential will be measured by TMRM (red) and reactive oxygen species will be measured by DCF (green) using confocal microscopy.
# [3] = system: mice treated with Mtox; test: Example 31: Mtox model of Parkinson's Disease; assay type: in vivo, mouse; details: Mtox 10 mg/kg, three doses
# Method: Three doses of Mtox (10 mg/kg) will be given to mice (n=12) 2 hours apart. Peptide conjugates, aromatic-cationic peptides, or SPN10(s) with or without aromatic-cationic peptides will be administered 30 minutes before each Mtox injection, and at 1 and 12 hours after the last Mtox injection. Animals will be sacrificed one week later and striatal brain regions will be immunostained for tyrosine hydroxylase activity. Levels of dopamine, DOPAC and HVA levels will be quantified by high pressure liquid chromatography.
# [4] = system: CD1 mice; test: Example 52: ATP synthesis following a burn injury (^31P NMR, EPR); assay type: in vivo, mouse
# Method: Material and Methods. Male 6-week-old CD1 mice weighing 20-25 g will be anesthetized by intraperitoneal (i.p.) injection of 40 mg/kg pentobarbital sodium. The left hind limb of all mice in all groups will be shaved. Burn subjects will be subjected to a nonlethal scald injury of 3-5% total body surface area (TBSA) by immersing the left hind limb in 90° C. water for 3 seconds.
# NMR spectroscopy is described in detail in Padfield, et al., Proc. Natl. Acad. Sci., 102:5368-5373 (2005). Briefly, mice will be randomized into 1) burn+control vehicle, 2) burn+peptide conjugate, 3) non-burn+control vehicle, 4) non-burn+peptide conjugate, 5) burn+aromatic-cationic peptides, 6) non-burn+aromatic-cationic peptides, 7) burn+SPN10, 8) non-burn+SPN10, 9) burn+SPN10+aromatic-cationic peptides, and 10) non-burn+SPN10+aromatic-cationic peptides groups. […] T1 relaxation times of Pi and phosphocreatine (PCr) will be measured using an inversion recovery pulse sequence in the presence of γ-ATP saturation. […]
structure (smiles),measurement,setting,value
"N=C(N)NCCC[C@H](NC(=O)[C@@H](N)Cc1c[nH]c2ccccc12)C(=O)N[C@@H](Cc1c[nH]c2ccccc12)C(=O)N[C@@H](CCCCN)C(N)=O [SPN10, H-L-Trp-L-Arg-L-Trp-L-Lys-NH2] (H-WRWK-NH2)","health of transplanted organ or tissue, cyclosporine dosage maintained",[1],healthier transplanted organ or tissue
same,oxidative damage in isolated pancreatic islet cells,[2],protect against oxidative damage
same,loss of dopaminergic neurons,[3],dose-dependently prevent the loss of dopaminergic neurons
same,"striatal dopamine, DOPAC, and HVA levels",[3],"dose-dependently increase striatal dopamine, DOPAC, and HVA levels"
same,ATP synthesis rate in burned mice,[4]; compared to burn controls,significant increase in the ATP synthesis rate
same,ATP synthesis rate in control healthy mice,[4]; non-burn,increase ATP synthesis rate substantially
